B1: KOD (wild-type): wild-type DNA polymerase from Thermococcus kodakaraensis (KOD) (protein, listed as Thermococcus kodakaraensis)
chain: MILDTDYITEDGKPVIRIFKKENGEFKIEYDRTFEPYFYALLKDDSAIEEVKKITAERHGTVVTVKRVEKVQKKFLGRPVEVWKLYFTHPQDVPAIRDKIREHPAVIDIYEYDIPFAKRYLIDKGLVPMEGDEELKMLAFDIETLYHEGEEFAEGPILMISYADEEGARVITWKNVDLPYVDVVSTEREMIKRFLRVVKEKDPDVLITYNGDNFDFAYLKKRCEKLGINFALGRDGSEPKIQRMGDRFAVEVKGRIHFDLYPVIRRTINLPTYTLEAVYEAVFGQPKEKVYAEEITTAWETGENLERVARYSMEDAKVTYELGKEFLPMEAQLSRLIGQSLWDVSRSSTGNLVEWFLLRKAYERNELAPNKPDEKELARRRQSYEGGYVKEPERGLWENIVYLDFRSLYPSIIITHNVSPDTLNREGCKEYDVAPQVGHRFCKDFPGFIPSLLGDLLEERQKIKKKMKATIDPIERKLLDYRQRAIKILANSYYGYYGYARARWYCKECAESVTAWGREYITMTIKEIEEKYGFKVIYSDTDGFFATIPGADAETVKKKAMEFLKYINAKLPGALELEYEGFYKRGFFVTKKKYAVIDEEGKITTRGLEIVRRDWSEIAKETQARVLEALLKDGDVEKAVRIVKEVTEKLSKYEVPPEKLVIHEQITRDLKDYKATGPHVAVAKRLAARGVKIRPGTVISYIVLKGSGRIGDRAIPFDEFDPTKHKYDAEYYIENQVLPAVERILRAFGYRKEDLRYQKTRQVGLSAWLKPKGT

Key:
Type in all cases: biochemical
[1] = tested on: 1.3 kbp, 2.8 kbp, and 3.6 kbp of human β-globin; test: Amplification of long-chain DNA in PCR using dUTP; conditions: 1.3, 2.8, 3.6 kbp; 100% dUTP (FIGS. 9 and 10)
Procedure: Amplification of 1.3 kbp, 2.8 kbp, and 3.6 kbp of human β-globin in PCR using dUTP was compared. For amplification, each enzyme was used after being mixed with 1 μg of a KOD antibody per U of the enzyme. For PCR, components included in KOD-Plus-Ver. 2 (produced by Toyobo Co. Ltd.) were used. 50 μl of individual reaction solutions containing 1× PCR buffer, 1.5 mM MgSO4, dNTPs (dATP, dUTP, dCTP, dGTP) in an amount of 2 mM in which dTTP was replaced by dUTP, primers in an amount of 15 pmol (SEQ ID NOs: 25 and 26 for amplification of 1.3 kbp; SEQ ID NOs: 26 and 29 for amplification of 2.8 kbp; SEQ ID NOs: 30 and 31 for amplification of 3.6 kbp), 10 ng of human genomic DNA (produced by Roche), and 1 U of each respective enzyme mixed with the antibody were used. PCR was performed using a GeneAmp PCR system 9700 (Applied Biosystems) on the following schedule: preliminary reaction at 94° C. for 2 minutes, followed by 35 cycles, each cycle consisting of 98° C. for 10 seconds, 65° C. for 30 seconds, and 68° C. for about 1 minute per kbp (1 minute and 30 seconds for amplification of 1.3 kbp; 3 minutes for amplification of 2.8 kbp; 4 minutes for amplification of 3.6 kbp). As a control, amplification was also performed using Taq DNA polymerase. Taq DNA polymerase produced by Toyobo Co. Ltd. mixed with Anti-Taq High (produced by Toyobo Co. Ltd.) was used. 50 μl of a reaction solution containing 1× buffer included in Blend Taq, dNTPs (dATP, dUTP, dCTP, dGTP) in an amount of 2 mM in which dTTP was replaced by dUTP, primers in an amount of 10 pmol the same as the above), 10 ng of human genomic DNA (produced by Roche), and 2.5 U of the enzyme mixed with the antibody was used. PCR was performed using a GeneAmp PCR system 9700 (produced by Applied Biosystems) on the following schedule: preliminary reaction at 94° C. for 2 minutes, followed by 35 cycles, each cycle consisting of 94° C. for 30 seconds, 65° C. for 30 seconds, and 68° C. for about 1 minute per kbp (1 minute and 30 seconds for amplification of 1.3 kbp; 3 minutes for amplification of 2.8 kbp; 4 minutes for amplification of 3.6 kbp). After the completion of each individual reaction, 5 μl of each of the resulting reaction solutions was subjected to agarose electrophoresis, followed by ethidium bromide staining, and the amount of amplified DNA fragments was confirmed under ultraviolet irradiation. FIGS. 9 and 10 show the results.

Psychrobacter DNA = test: PCR amplification using inosine-containing primers; conditions: for amplification with inosine-containing primers: primers 75 pmol or 150 pmol, 35 cycles (FIG. 11)
Procedure: (§1) Using inosine-containing primers, the difference in PCR amplification was compared. For comparison, KOD mutants and KOD (wild-type), each mixed with 1 μg of a KOD antibody per U of the enzyme, and Taq DNA polymerase mixed with an antibody (a mixture of equal amounts of Taq DNA polymerase (produced by Toyobo Co. Ltd.) and Anti-Taq High (produced by Toyobo Co. Ltd.)) were used.
For PCR with the KOD mutants and PCR with the KOD, a buffer, MgSO4, and dNTPs included in KOD-Plus-Ver. 2 (produced by Toyobo Co. Ltd.) were used. 50 μl of individual reaction solutions containing 1× PCR buffer, 1.5 mM MgSO4, dNTPs (dATP, dTTP, dCTP, dGTP) in an amount of 0.2 mM, primers (SEQ ID NOs: 40 and 41) in an amount of 75 pmol or 150 pmol, 100 ng of Psychrobacter DNA, and 1 U of each respective enzyme mixed with the antibody were used. PCR was performed using a GeneAmp PCR system 9700 (Applied Biosystems) on the following schedule: preliminary reaction at 94° C. for 2 minutes, followed by 35 cycles, each cycle consisting of 98° C. for 10 seconds, 54° C. for 10 seconds, and 68° C. for 1 minute.
For PCR with the Taq DNA polymerase, 50 μl of a reaction solution containing 1× buffer included in Blend Taq (product of Toyobo), dNTPs (dATP, […], dCTP, dGTP) in an amount of 0.2 mM, primers in an amount of 75 pmol or 150 pmol (the same as above), 100 ng of Psychrobacter DNA, and 2.5 U of the enzyme mixed with the antibody was used. PCR was performed using a GeneAmp PCR system 9700 (Applied Biosystems) on the following schedule: preliminary reaction at 94° C. for 2 minutes, followed by 35 cycles, each cycle consisting of 94° C. for 30 seconds, 54° C. for 30 seconds, and 68° C. for 1 minute.
(§2) After the completion of each individual reaction, each of the resulting reaction solutions was analyzed using a DNA-1000 kit for MultiNA (produced by Shimadzu Corporation) to confirm amplified DNA fragments.

[2] = tested on: bisulfite-treated human genomic DNA (MINT1, RAR, THBS1, MINT31); test: PCR amplification of bisulfite-treated DNA; conditions: 40 cycles (FIG. 12)
Procedure: as §1, with “bisulfite-treated DNA as a template and various” for “inosine-containing”, “mutant (Y7A/V93K)” for “mutants”
The bisulfite-treated DNA used was human genomic DNA (produced by Roche) that had been treated with a MethylCode Bisulfite Conversion Kit of Invitrogen.
For PCR with the KOD mutant (Y7A/V93K) and PCR with the KOD, a buffer, MgSO4, and dNTPs included in KOD-Plus-Ver. 2 (produced by Toyobo Co. Ltd.) were used. 50 μl of individual reaction solutions containing 1× PCR buffer, 1.5 mM MgSO4, dNTPs (dATP, dTTP, dCTP, dGTP) in an amount of 0.2 mM, primers (SEQ ID NOs: 42 and 43 for amplification of MINT1; SEQ ID NOs: 44 and 45for amplification of RAR; SEQ ID NOs: 46 and 47 for amplification of THBS1; SEQ ID NOs: 48 and 49 for amplification of MINT31) in an amount of 15 pmol, 1 μl of bisulfite-treated DNA extract, and 1 U of each respective enzyme mixed with the antibody were used. PCR was performed using a GeneAmp PCR system 9700 (Applied Biosystems) on the following schedule: preliminary reaction at 94° C. for 2 minutes, followed by 40 cycles, each cycle consisting of 98° C. for 10 seconds, 55° C. for 15 seconds, and 68° C. for 1 minute.
For PCR with the Taq DNA polymerase, 50 μl of a reaction solution containing 1× buffer included in Blend Taq (product of Toyobo), dNTPs (dATP, […], dCTP, dGTP) in an amount of 0.2 mM, primers in an amount of 15 pmol (the same as above), 1 μl of bisulfite-treated DNA extract, and 2.5 U of the enzyme mixed with the antibody was used. […]
as §2

[3] = tested on: human genomic DNA (about 1.3 kb) with dUTP added; test: Evaluation of uracil (dUTP) sensitivity by PCR with dUTP added to the reaction; conditions: addition of 0.5 μM of dUTP
Procedure, shortened: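 Each enzyme (1 U) amplified about 1.3 kb from 10 ng human genomic DNA in KOD-Plus-Ver. 2 buffer with 1.5 mM MgSO4 and 0.2 mM dNTPs. dUTP was added at final 0.5, 5, 50, 100 and 200 μM, over 30 cycles of 98/65/68° C. Sensitivity is the dUTP level still yielding product on ethidium bromide-stained agarose gel.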

Row | Molecule | amount of amplification of long-chain DNA with dUTP [1] | amount of inosine-containing primers at which amplification was observed (Psychrobacter DNA; 75 pmol or 150 pmol tested) | amplification with inosine-containing primers (Psychrobacter DNA) | amplification of bisulfite-treated DNA [2] | PCR products on addition of dUTP [3]
1 | Taq DNA polymerase: Taq DNA polymerase produced by Toyobo Co. Ltd. mixed with Anti-Taq High, used as control [reference compound] | cannot be amplified | 150 pmol | stable amplification was confirmed | stable amplification was confirmed | –
2 | B1 | – | – | not amplified | not amplified | no PCR products were confirmed

Reference: patent US20150218534A1, “MODIFIED DNA POLYMERASE” (TOYOBO CO., LTD., priority 2012, published 2015)
